Test: Inhibition of KRas G12C mutant in human NCI-H1792 cells assessed as antiproliferative activity incubated for 3 days by CellTiter-Glo assay

- EC50: 320 nM
Compound: C=CC(=O)N1CCN(C(=O)CNc2cc(I)c(Cl)cc2O)CC1

Source: BindingDB's records for doi:10.1021/acs.jmedchem.0c01312 (Jinan University, 2020)
